Like-named read-outs stand apart in the source and are kept apart here.
Tests used:
[1] = Pharmacokinetic tests in male SD rats; assay type: in vivo; conditions: oral gavage (po), 10 mg/kg, plasma; for AUC(0-inf) / AUC(0-t) / Cmax / MRT last / Tmax: rat
Procedure, shortened: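 Fasted male SD rats (n=3) dosed 10 mg/kg by oral gavage as 1 mg/mL solution in 10% DMSO/90% 0.5% MC. Tail-vein EDTA plasma sampled 0.5–24 h, parent drug quantified by LC-MS/MS; AUC, T1/2, Cmax, Tmax by non-compartmental analysis.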

[2] = target: EGFR in Baf3-L858R-T790M-C797S (Homo sapiens, UniProt P00533, C797S/L858R/T790M); assay: EGFR PROTAC HTRF experiment (total EGFR degradation); assay type: cell-based
Chain of EGFR in Baf3-L858R-T790M-C797S (P00533 25-1210 T790M/C797S/L858R): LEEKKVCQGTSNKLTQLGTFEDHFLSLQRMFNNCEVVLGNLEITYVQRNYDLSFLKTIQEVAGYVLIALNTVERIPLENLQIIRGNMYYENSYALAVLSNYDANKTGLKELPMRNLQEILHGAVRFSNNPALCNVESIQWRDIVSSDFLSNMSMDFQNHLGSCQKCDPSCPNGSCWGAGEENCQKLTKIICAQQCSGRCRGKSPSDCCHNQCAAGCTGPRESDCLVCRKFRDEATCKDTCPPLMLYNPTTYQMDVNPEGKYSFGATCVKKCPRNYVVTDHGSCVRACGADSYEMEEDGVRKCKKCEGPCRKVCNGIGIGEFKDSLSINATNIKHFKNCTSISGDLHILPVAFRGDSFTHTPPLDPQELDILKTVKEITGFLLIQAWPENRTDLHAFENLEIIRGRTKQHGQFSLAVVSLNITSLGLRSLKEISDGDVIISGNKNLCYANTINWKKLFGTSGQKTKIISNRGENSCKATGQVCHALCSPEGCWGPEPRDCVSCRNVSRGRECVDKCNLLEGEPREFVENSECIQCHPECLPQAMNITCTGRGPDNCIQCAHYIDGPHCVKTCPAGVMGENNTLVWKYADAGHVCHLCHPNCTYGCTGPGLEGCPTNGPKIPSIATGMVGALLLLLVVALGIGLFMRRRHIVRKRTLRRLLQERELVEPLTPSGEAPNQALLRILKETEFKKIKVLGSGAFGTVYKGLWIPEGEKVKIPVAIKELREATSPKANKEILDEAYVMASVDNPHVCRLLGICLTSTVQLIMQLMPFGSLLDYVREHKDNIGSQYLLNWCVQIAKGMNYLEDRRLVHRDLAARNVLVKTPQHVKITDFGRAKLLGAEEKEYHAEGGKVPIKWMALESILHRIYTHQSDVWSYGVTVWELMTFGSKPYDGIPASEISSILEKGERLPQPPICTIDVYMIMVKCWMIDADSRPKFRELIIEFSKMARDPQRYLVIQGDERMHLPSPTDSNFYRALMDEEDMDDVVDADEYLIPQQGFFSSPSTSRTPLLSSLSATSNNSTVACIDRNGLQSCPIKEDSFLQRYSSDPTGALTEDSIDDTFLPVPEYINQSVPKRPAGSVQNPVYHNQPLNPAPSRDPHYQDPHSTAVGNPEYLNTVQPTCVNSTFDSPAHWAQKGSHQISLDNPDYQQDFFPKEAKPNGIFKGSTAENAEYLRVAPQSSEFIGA
Procedure, shortened: (§1)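 Ba/F3 clones stably expressing EGFR L858R/T790M/C797S or del19/T790M/C797S were treated with compound; total EGFR measured by HTRF with Eu and d2 antibodies. DC50 and Dmax derived from fitted curves.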

[3] = target: EGFR in Baf3-19del-T790M-C797S (Homo sapiens, UniProt P00533, C797S/DEL746-750/T790M); assay: as above; assay type: cell-based
Chain of EGFR in Baf3-19del-T790M-C797S (P00533 with tags, fused parts or gaps DEL746-750/T790M/C797S): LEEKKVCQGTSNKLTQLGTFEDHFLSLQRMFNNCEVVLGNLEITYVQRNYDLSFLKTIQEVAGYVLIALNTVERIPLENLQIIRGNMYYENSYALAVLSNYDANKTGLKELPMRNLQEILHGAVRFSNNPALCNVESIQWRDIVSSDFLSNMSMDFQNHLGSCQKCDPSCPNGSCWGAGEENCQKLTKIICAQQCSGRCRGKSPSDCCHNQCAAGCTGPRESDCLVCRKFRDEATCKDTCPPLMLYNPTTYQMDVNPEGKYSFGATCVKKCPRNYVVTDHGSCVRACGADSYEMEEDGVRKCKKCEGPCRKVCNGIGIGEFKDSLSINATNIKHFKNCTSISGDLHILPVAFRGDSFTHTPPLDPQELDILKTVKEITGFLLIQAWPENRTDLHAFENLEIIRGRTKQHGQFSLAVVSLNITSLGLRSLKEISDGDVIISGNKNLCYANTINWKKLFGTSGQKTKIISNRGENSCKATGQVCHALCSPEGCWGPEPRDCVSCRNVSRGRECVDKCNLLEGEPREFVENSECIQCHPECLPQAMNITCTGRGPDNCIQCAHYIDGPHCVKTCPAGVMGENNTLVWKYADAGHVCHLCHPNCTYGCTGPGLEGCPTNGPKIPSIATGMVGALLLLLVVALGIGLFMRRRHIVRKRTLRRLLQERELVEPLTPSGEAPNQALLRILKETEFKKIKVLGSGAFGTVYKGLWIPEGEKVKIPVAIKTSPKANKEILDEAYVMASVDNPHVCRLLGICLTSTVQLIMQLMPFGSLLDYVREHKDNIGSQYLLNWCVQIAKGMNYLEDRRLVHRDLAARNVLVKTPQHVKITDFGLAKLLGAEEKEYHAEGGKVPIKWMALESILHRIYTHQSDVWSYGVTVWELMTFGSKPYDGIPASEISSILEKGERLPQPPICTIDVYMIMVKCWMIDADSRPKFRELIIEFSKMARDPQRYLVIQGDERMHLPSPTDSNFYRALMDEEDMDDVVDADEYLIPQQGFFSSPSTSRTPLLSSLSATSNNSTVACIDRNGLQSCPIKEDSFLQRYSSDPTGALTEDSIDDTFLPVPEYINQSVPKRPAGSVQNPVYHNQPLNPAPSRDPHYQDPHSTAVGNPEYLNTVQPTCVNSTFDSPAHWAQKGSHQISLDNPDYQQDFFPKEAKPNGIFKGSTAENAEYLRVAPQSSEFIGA
Procedure, shortened: as §1

[4] = Baf3-LTC, incubated 16 hours, HTRF total EGFR; read-out: Baf3-LTC DC50
[5] = Baf3-LTC, incubated 16 hours, HTRF total EGFR; read-out: Baf3-LTC Dmax
[6] = Baf3-DTC, incubated 16 hours, HTRF total EGFR; read-out: Baf3-DTC DC50
[7] = Baf3-DTC, incubated 16 hours, HTRF total EGFR; read-out: Baf3-DTC Dmax

`COc1cc(N2CCC(CN3CCN(c4ccc5c(c4)C(=O)N(C4CCC(=O)NC4=O)C5=O)CC3)CC2)c(-c2cnn(C)c2)cc1Nc1ncc(Br)c(Nc2ccc(C3CC3)cc2P(C)(C)=O)n1` (centres unmarked) [DZL-1, reference compound] gave an HL [1] of 3.08 h, an AUC(0-inf) [1] of 8460 ng·h/mL and an AUC(0-t) [1] of 8070 ng·h/mL. It also gave a Cmax [1] of 699 ng/mL, an MRT last [1] of 6.11 h and a Tmax [1] of 4 h. It also gave a DC50 [2, 4] of 10 to 100 nM, a Dmax [2, 5] of 70 to 100% and a DC50 [3, 6] of 10 to 100 nM. It also gave a Dmax [3, 7] of 70 to 100%.
For `CCc1cc(Nc2ncc(Cl)c(Nc3ccccc3C(=O)NC)n2)c(OC)cc1N1CCN(C(=O)CN2CCC(c3cc4c(cc3F)c(N3CCC(=O)NC3=O)nn4C)C(F)(F)C2)CC1` (centres unmarked) [TA-003], the HL [1] was 3.22 h, the AUC(0-inf) [1] was 3800 ng·h/mL and the AUC(0-t) [1] was 3770 ng·h/mL. For the same compound, the Cmax [1] was 441 ng/mL, the MRT last [1] was 5.63 h and the Tmax [1] was 2 h. The DC50 ([2]; read-out: Baf3-LTC DC50; Baf3-LTC, incubated 16 hours, HTRF total EGFR) was 10 to 100 nM, the Dmax ([2]; read-out: Baf3-LTC Dmax) was 70 to 100% and the DC50 ([3]; read-out: Baf3-DTC DC50; Baf3-DTC, incubated 16 hours, HTRF total EGFR) was 10 to 100 nM. It also gave a Dmax ([3]; read-out: Baf3-DTC Dmax) of 70 to 100%.
Work on `CCc1cc(Nc2ncc(Cl)c(Nc3ccccc3P(C)(C)=O)n2)c(OC)cc1N1CC2(CCN(C(=O)CN3CCC(c4cc5c(cc4F)c(N4CCC(=O)NC4=O)nn5C)C(F)(F)C3)CC2)C1` (centres unmarked) [TA-023] yielded an HL [1] of 3.99 h, an AUC(0-inf) [1] of 3980 ng·h/mL and an AUC(0-t) [1] of 3920 ng·h/mL. For the same compound, the Cmax [1] was 580 ng/mL, the MRT last [1] was 5.1 h and the Tmax [1] was 2 h. It also gave a DC50 [2, 4] of 10 to 100 nM, a Dmax [2, 5] of 70 to 100% and a DC50 [3, 6] of 10 to 100 nM. It also gave a Dmax [3, 7] of 70 to 100%.
Compound `CCc1cc(Nc2ncc(Cl)c(Nc3ccccc3P(C)(C)=O)n2)c(OC)cc1N1CCN(C(=O)CN2CCC(c3cc4c(cc3F)c(N3CCC(=O)NC3=O)nn4C)C(F)(F)C2)CC1` (centres unmarked) [TC-157] has an HL [1] of 2.66 h, an AUC(0-inf) [1] of 5800 ng·h/mL and an AUC(0-t) [1] of 7530 ng·h/mL. The Cmax [1] was 768 ng/mL, the MRT last [1] was 5.52 h and the Tmax [1] was 3.33 h. The DC50 [2, 4] was under 10 nM, the Dmax ([2]; read-out: Baf3-LTC Dmax) was 70 to 100% and the DC50 [3, 6] was under 10 nM. It also gave a Dmax ([3]; read-out: Baf3-DTC Dmax) of 70 to 100%.
In the case of `CCc1cc(Nc2ncc(Cl)c(Nc3ccccc3P(C)(C)=O)n2)c(OC)cc1N1CCN(C(=O)CN2CCC(c3cc4c(cc3F)c(N3CCC(=O)NC3=O)nn4C)CC2)CC1` [TC-213], the HL [1] is reported as 3.48 h, the AUC(0-inf) [1] is reported as 8150 ng·h/mL and the AUC(0-t) [1] is reported as 8070 ng·h/mL. The Cmax [1] was 742 ng/mL, the MRT last [1] was 6.22 h and the Tmax [1] was 4 h. The DC50 [2, 4] was 10 to 100 nM, the Dmax [2, 5] was 70 to 100% and the DC50 [3, 6] was 10 to 100 nM. It also gave a Dmax [3, 7] of 70 to 100%.
